Measurements reported in publication PMC5697638, “Identification of a Potent Phosphoinositide 3‐Kinase Pan Inhibitor Displaying a Strategic Carboxylic Acid Group and Development of Its Prodrugs” (Chemmedchem, 2017).

Test: stability in mouse plasma
Format: in vitro ADME
Conditions: mouse, mouse plasma, 50 μM substrate, 30 min incubation, 37 °C; read-out: Mouse plasma t 1/2
Procedure: Twelve esters were prepared (see the Experimental Section for their synthesis and the Supporting Information for chromatographic methods) and evaluated in terms of metabolic stability. For this task, a combined approach based on microsomal and plasmatic stability assays was exploited considering the relevance of the plasmatic and hepatic tissues in esterase activity. Microsomal stability of the selected esters was evaluated by monitoring the disappearance of the substrate incubated in rat liver microsomes (RLM) at 50 μM concentration, in the presence of NADPH. In Table 4, the percentage of the remaining substrate, after incubation (t=60 min), with respect to the initial amount is reported. Overall, the compounds underwent a relevant metabolic transformation, and the substrate depletion ranged from 0 (for 76) to 100 % (for 70). This is mainly due to hydrolysis of the ester function, whereas the metabolites arising from the oxidation catalyzed by the NADPH‐dependent monooxygenase system were negligible from a quantitative point of view. Indeed, the main metabolite formed during the incubation of the esters was corresponding carboxyl derivative 37. […] Moreover, whereas CH2‐pyridin‐4‐yl ester 70 was completely metabolized, corresponding benzyl derivative 65 and piperonyl derivative 72 were more hydrolytically stable, and their residual substrates were 53 and 83 %, respectively. The hydrolytic stability of the selected esters was also evaluated by monitoring the depletion of the substrate incubated at a 50 μM concentration in mouse plasma over a period of 30 min. As expected, the plasmatic metabolic fate of the esters was characterized by the formation of 37 as the only metabolite (see Figure S4). The rate constant k [min^−1], derived for the substrate peak area versus time curve (single‐exponential decay equation—GraphPad Prism software, Inc., San Diego, CA (USA); see Figure S5) was used to calculate the in vitro half‐life t 1/2 [min], and the values are reported in Table 4. […]
Stability of PI3K inhibitors in mouse plasma
An aliquot of 460 µL of blank plasma spiked with substrate (50 µM, final concentration, DMSO 5%) was incubated at 37 °C for 30 minutes. Aliquots (70 µL) of the incubation took at 0-2-5-10-20, and 30 minutes were diluted with 140 µL of acetonitrile, homogenized, and centrifuged at 13,000 rpm for five minutes. Supernatants (20 µL) were injected onto HPLC.
A Shimadzu HPLC system (Shimadzu, Kyoto, Japan), consisting of two LC-10AD Vp module pumps, an SLC-10A Vp system controller, an SIL-10AD Vp autosampler, and a DGU-14-A on-line degasser was used for the analysis. All the chromatographic separations were performed on a Phenomenex Luna C18 5µm (150 x 4.6 mm i.d.) (Phenomenex srl, Castel Bolognese, Italy) as a stationary phase protected by a Luna C18 SecurityGuard (Phenomenex srl). The SPD-M10Avp photodiode array detector was used to detect the analyte at 254 nm. LC Solution 1.24 software was used to process the chromatograms. Aliquots (20 µL) of supernatants obtained from incubations were injected onto the HPLC system and eluted with a mobile phase (flow rate: 1 mL/min) consisting of solvent A- 0.5% aqueous formic acid solution and solvent B- acetonitrile/methanol 80:20.
The eluants were filtered through a 0.45-µm pore size polyvinylidene difluoride membrane […]
The following gradients programs were used: […]

For `COC(=O)c1cccc(Cn2cc(-c3cccc4c(=O)cc(N5CCOCC5)[nH]c34)nn2)c1` [Compound 64, Methyl 3‐{[4‐(2‐morpholino‐4‐oxo‐1,4‐dihydroquinolin‐8‐yl)‐1H‐1,2,3‐triazol‐1‐yl]methyl}benzoate], which half-life at 50 µM is on record?
Its half-life at 50 µM is 13.3 min.
